Assays:
[1] = biological target: recombinant ROCK2 (amino acids 1-552) (Homo sapiens (Human), UniProt O75116); experiment: Z'-lyte kinase assay, ROCK2; type: biochemical
Protocol: Determination of compounds ROCK inhibitory activity in vitro (Z'lyte assay): recombinant ROCK1 (amino acids 1-535) and ROCK2 (amino acids 1-552) proteins were purchased from ThermoFisher Scientific. Compounds activities were measured by Z'-lyte kinase kit (ThermoFisher Scientific) and IC50s were calculated.
Compounds activities were measured by Z'-lyte kinase kit (ThermoFisher Scientific). […] IC50s were calculated using the GraphPad Prism software with kinase activities data that were collected from 9 points serial dilution of compounds treatment. The ROCK inhibition in A7R5 cells and NIH3T3 (Acta2-Luc) cells was performed as described above.
The percent inhibition rate was calculated by normalizing the kinase activity value obtained with compound treatment against DMSO control value and then applied to the equation, […]. IC50's were calculated using the nonlinear regression curve fit function of the GraphPad Prism software with kinase activities data measured with 9 points 2-fold serial dilution of compounds treatment.

[2] = tested on: ppMlc (T18/S19) levels in A7R5 cells; experiment: A7R5 in-cell ELISA assay (ppMlc); type: cell-based, rat; details: Rattus norvegicus, A7R5, A7R5 cells, Table 2; read-out: pMLC IC50 (nM) A7R5
Protocol: Determination of compounds ROCK inhibitory activity in A7R5 cells: rat aortic smooth muscle cell line A7R5 cells were maintained and treated in DMEM medium with 10% of fetal bovine serum. Cells were seeded with density of 5,000 cells/well in 96-well plates for 24 hours and subsequently treated 90 min with testing compounds. Cells were then fixed and processed according to the In-Cell ELISA Colorimetric Detection Kit manual (Thermo Scientific).
A7R5 cells were treated with 9 points 2 fold serial dilution of compounds and ppMlc (T18/S19) levels were determined in order to calculate the cellular IC50s of the compounds.
An A7R5 in-cell ELISA assay was performed to determine ROCK inhibition of test articles. A7R5 cells were treated with 9 points 2-fold serial dilution of compounds and ppMlc (T18/S19) levels were determined to calculate cellular IC50 values of the compounds. […] A7R5 cells were treated with 9 points 2-fold serial dilution of compounds and ppMlc (T18/S19) levels were determined to calculate cellular IC50 values of the compounds using the nonlinear regression curve fit function of the GraphPad Prism software.

[3] = tested on: ACTA2-promoter-driven-luciferase in NIH3T3 cells; experiment: NIH3T3 Acta2-promoter driven-luciferase assay; type: cell-based; details: Mus musculus, plus TGFβ1, 24 hr, read-out: NIH3T3, Acta2-luc, IC50
Protocol: NIH3T3 cells Acta2-promoter driven-luciferase assay: A NIH3T3 cell line stably expressing a luciferase reporter driven by the human ACTA2 gene promoter (−1000-1 bp) was established (NIH3T3-Acta2-luciferase). The cells were plated to confluence and treated with the test compounds plus TGFβ1 for 24 hr. Cells were then lysed and luciferase activity was measured using the LightSwitch luciferase kit from Active Motif.
ROCK inhibitors can be effectively rank ordered by ACTA2-promoter-driven-luciferase reporter cell assay. NIH3T3 cells stably expressing ACTA2-promoter-driven-luciferase were applied to measure ROCK compounds functional IC50's in cells. Cells were plated in 96 well plates to confluence and treated with 9 points serial dilution of compounds in combination with TGFβ1 for 24 hr. Luciferase activities were measured and compound's IC50's were calculated using the nonlinear regression curve fit function of the GraphPad Prism software. Compounds of the invention gave in cell IC50's under 200 nM, see FIG. 1c.

Sequence of recombinant ROCK2 (amino acids 1-552) (O75116 1-552): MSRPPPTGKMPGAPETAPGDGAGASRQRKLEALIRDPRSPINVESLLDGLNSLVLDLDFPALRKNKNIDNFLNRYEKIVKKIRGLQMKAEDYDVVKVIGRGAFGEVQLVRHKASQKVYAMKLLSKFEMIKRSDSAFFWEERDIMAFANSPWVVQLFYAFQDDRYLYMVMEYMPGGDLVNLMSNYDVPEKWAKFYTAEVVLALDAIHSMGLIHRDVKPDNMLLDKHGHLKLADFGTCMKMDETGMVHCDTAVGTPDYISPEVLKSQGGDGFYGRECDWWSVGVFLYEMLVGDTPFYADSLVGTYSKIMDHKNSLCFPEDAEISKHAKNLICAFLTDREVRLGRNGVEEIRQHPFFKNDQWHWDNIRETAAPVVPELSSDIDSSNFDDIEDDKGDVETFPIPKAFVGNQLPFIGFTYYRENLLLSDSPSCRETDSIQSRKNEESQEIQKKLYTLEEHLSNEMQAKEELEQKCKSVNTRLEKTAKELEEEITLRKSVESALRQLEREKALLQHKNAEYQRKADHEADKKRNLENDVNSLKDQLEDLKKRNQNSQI

| IC50 [1] [nM] | IC50 [2] [nM] | Structure (SMILES) | IC50 [3] [nM] |
| --- | --- | --- | --- |
| 94 | 692 | COCCNC(C(=O)Nc1ccc(-c2cn[nH]c2)cc1)c1cccc(OC)c1 (stereo not drawn) [Example 25, N-(4-(1H-pyrazol-4-yl)phenyl)-2-((2-methoxyethyl)amino)-2-(3-methoxyphenyl)acetamide] | 663 |
| 10 | 74 | COc1cccc(C(NCCN(C)C)C(=O)Nc2ccc(-c3cn[nH]c3)cc2)c1 (stereo not drawn) [Example 57, N-(4-(1H-pyrazol-4-yl)phenyl)-2-((2-(dimethylamino)ethyl)amino)-2-(3-methoxyphenyl)acetamide] | 175 |
| 31 | 759 | COCC1(NC(C(=O)Nc2ccc(-c3cn[nH]c3)cc2)c2cccc(OC)c2)CC1 (stereo not drawn) [Example 53, N-(4-(1H-pyrazol-4-yl)phenyl)-2-((1-(methoxymethyl)cyclopropyl)amino)-2-(3-methoxyphenyl)acetamide] | 1260 |
| 2.4 | 97 | COc1cccc(C(NCCN2CCOCC2)C(=O)Nc2ccc(-c3cn[nH]c3)cc2)c1 (stereo not drawn) [Example 50, N-(4-(1H-pyrazol-4-yl)phenyl)-2-(3-methoxyphenyl)-2-((2-morpholinoethyl)amino)acetamide] | 92 |
| 3 | 108 | CN[C@H](C(=O)Nc1ccc(-c2cn[nH]c2)cc1)c1cccc(OC)c1 [Example 4, (S)—N-(4-(1H-pyrazol-4-yl)phenyl)-2-(3-methoxyphenyl)-2-(methylamino)acetamide] | 110 |
| 107 | 1880 | CCN(CCOC)C(C(=O)Nc1ccc(-c2cn[nH]c2)cc1)c1cccc(OC)c1 (stereo not drawn) [Example 46, N-(4-(1H-pyrazol-4-yl)phenyl)-2-(ethyl(2-methoxyethyl)amino)-2-(3-methoxyphenyl)acetamide] | 1200 |
| 30 | 321 | COCCN(C)C(C(=O)Nc1ccc(-c2cn[nH]c2)cc1)c1cccc(OC)c1 (stereo not drawn) [Example 47, N-(4-(1H-pyrazol-4-yl)phenyl)-2-((2-methoxyethyl)(methyl)amino)-2-(3-methoxyphenyl)acetamide] | 465 |
| 42 | 2020 | CNC(=O)CNC(C(=O)Nc1ccc(-c2cn[nH]c2)cc1)c1cccc(OC)c1 (stereo not drawn) [Example 44, N-(4-(1H-pyrazol-4-yl)phenyl)-2-(3-methoxyphenyl)-2-((2-(methylamino)-2-oxoethyl)amino)acetamide] | 2230 |
| 47 | 1490 | COCC(C)(C)NC(C(=O)Nc1ccc(-c2cn[nH]c2)cc1)c1cccc(OC)c1 (stereo not drawn) [Example 43, N-(4-(1H-pyrazol-4-yl)phenyl)-2-((1-methoxy-2-methylpropan-2-yl)amino)-2-(3-methoxyphenyl)acetamide] |  |
| 6.5 | 359 | CNCCCNC(C(=O)Nc1ccc(-c2cn[nH]c2)cc1)c1cccc(OC)c1 (stereo not drawn) [Example 42, N-(4-(1H-pyrazol-4-yl)phenyl)-2-(3-methoxyphenyl)-2-((3-(methylamino)-propyl)amino)acetamide] |  |

Further lines, the compound ahead of its results:

| Structure (SMILES) | IC50 [1] [nM] | IC50 [2] [nM] | IC50 [3] [nM] |
| --- | --- | --- | --- |
| COCCN(C)C(C(=O)Nc1cc(F)c(-c2cn[nH]c2)cc1OCCN(C)C)c1cccc(OC)c1 (stereo not drawn) [Example 51, N-(2-(2-(dimethylamino)ethoxy)-5-fluoro-4-(1H-pyrazol-4-yl)phenyl)-2-((2-methoxyethyl)(methyl)amino)-2-(3-methoxyphenyl)acetamide] | 8.1 | 54 | 101 |
| CN[C@H](C(=O)Nc1ccc(-c2cn[nH]c2)cc1)c1ccc(Cl)cc1 [Example 64, (S)—N-(4-(1H-pyrazol-4-yl)phenyl)-2-(4-chlorophenyl)-2-(methylamino)acetamide] | 24 | 379 | 227 |
| CNC(C(=O)Nc1cc(F)c(-c2cn[nH]c2)cc1OCCN(C)C)c1cccc(OC)c1 (stereo not drawn) [Example 71, N-(2-(2-(dimethylamino)ethoxy)-5-fluoro-4-(1H-pyrazol-4-yl)phenyl)-2-(3-methoxyphenyl)-2-(methylamino)acetamide] | 3 | 57 | 301 |
| CNC(C(=O)Nc1ccc(-c2cn[nH]c2)cc1)c1ccc2nc(C)sc2c1 (stereo not drawn) [Example 27, N-(4-(1H-pyrazol-4-yl)phenyl)-2-(methylamino)-2-(2-methylbenzo[d]thiazol-6-yl)acetamide] | 65 | 1680 | 699 |
| COCCNC(C(=O)N(C)c1ccc(-c2cn[nH]c2)cc1)c1cccc(OC)c1 (stereo not drawn) [Example 49, N-(4-(1H-pyrazol-4-yl)phenyl)-2-((2-methoxyethyl)amino)-2-(3-methoxyphenyl)-N-methylacetamide] | > 1000 |  |  |
| CNC(C(=O)Nc1ccc(-c2cn[nH]c2)cc1)c1cccc(C)c1 (stereo not drawn) [Example 14, N-(4-(1H-pyrazol-4-yl)phenyl)-2-(methylamino)-2-(m-tolyl)acetamide] | 6.8 | 353 | 496 |
| CNCCN1CCCN(c2ccc(-c3cn[nH]c3)cc2)C(=O)C1c1cccc(OC)c1 (stereo not drawn) [Example 76, 1-(4-(1H-pyrazol-4-yl)phenyl)-3-(3-methoxyphenyl)-4-(2-(methylamino)ethyl)-1,4-diazepan-2-one] | 950 |  |  |
| COCCNC(C(=O)Nc1ccc(-c2cn[nH]c2)c(F)c1)c1cccc(OC)c1 (stereo not drawn) [Example 55, N-(3-fluoro-4-(1H-pyrazol-4-yl)phenyl)-2-((2-methoxyethyl)amino)-2-(3-methoxyphenyl)acetamide] | 17 | 506 | 601 |
| CNC(C(=O)Nc1ccc(-c2cn[nH]c2)cc1)c1ccc(C(=O)OC)cc1 (stereo not drawn) [Example 34, methyl 4-(2-((4-(1H-pyrazol-4-yl)phenyl)amino)-1-(methylamino)-2-oxoethyl)benzoate] | 310 | > 5000 | > 5000 |
| CCNC(C(=O)Nc1ccc(-c2cn[nH]c2)cc1)c1cccc(F)c1 (stereo not drawn) [Example 15, N-(4-(1H-pyrazol-4-yl)phenyl)-2-(ethylamino)-2-(3-fluorophenyl)acetamide] | 24 | 655 | 1050 |
| CNC(C(=O)Nc1ccc(-c2cn[nH]c2)cc1)c1ccc(C(=O)O)cc1 (stereo not drawn) [Example 68, 4-(2-((4-(1H-pyrazol-4-yl)phenyl)amino)-1-(methylamino)-2-oxoethyl)benzoic acid] | 451 | > 5000 | > 5000 |
| COc1cccc(C2C(=O)N(c3ccc(-c4cn[nH]c4)cc3)CCCN2CCN(C)C)c1 (stereo not drawn) [Example 75, 1-(4-(1H-pyrazol-4-yl)phenyl)-4-(2-(dimethylamino)ethyl)-3-(3-methoxyphenyl)-1,4-diazepan-2-one] | > 1000 |  |  |
| COCCNC(C(=O)Nc1cc(F)c(-c2cn[nH]c2)cc1OCCN(C)C)c1cccc(OC)c1 (stereo not drawn) [Example 48, N-(2-(2-(dimethylamino)ethoxy)-5-fluoro-4-(1H-pyrazol-4-yl)phenyl)-2-((2-methoxyethyl)amino)-2-(3-methoxyphenyl)acetamide] | 67 | 314 | 1010 |
| CNC(C(=O)Nc1ccc(-c2cn[nH]c2)cc1)c1ccc(OC)cc1 (stereo not drawn) [Example 9, N-(4-(1H-pyrazol-4-yl)phenyl)-2-(4-methoxyphenyl)-2-(methylamino)acetamide] | 15.4 | 355 |  |
| COc1cccc(C2C(=O)N(c3ccc(-c4cn[nH]c4)cc3)CCCN2CC2CC2)c1 (stereo not drawn) [Example 74, 1-(4-(1H-pyrazol-4-yl)phenyl)-4-(cyclopropylmethyl)-3-(3-methoxyphenyl)-1,4-diazepan-2-one] | > 1000 |  |  |
| CNC(C(=O)Nc1cc(F)c(-c2cn[nH]c2)cc1OCCCN(C)C)c1cccc(OC)c1 (stereo not drawn) [Example 70, N-(2-(3-(dimethylamino)propoxy)-5-fluoro-4-(1H-pyrazol-4-yl)phenyl)-2-(3-methoxyphenyl)-2-(methylamino)acetamide] | 7.7 | 134 |  |

Source: patent US11479533B2, “Inhibitors of Rho associated coiled-coil containing protein kinase” (KADMON CORPORATION, LLC, priority 2017, dated 2022)
